From US20230151014A1 (Repare Therapeutics Inc., priority 2020, published 2023)

Biological target: T1, recombinant human Myt1 (Homo sapiens, UniProt Q99640)
T1 construct: full length PKMYT1 recombinant human protein expressed in insect cells
T1 sequence (Q99640 1-499): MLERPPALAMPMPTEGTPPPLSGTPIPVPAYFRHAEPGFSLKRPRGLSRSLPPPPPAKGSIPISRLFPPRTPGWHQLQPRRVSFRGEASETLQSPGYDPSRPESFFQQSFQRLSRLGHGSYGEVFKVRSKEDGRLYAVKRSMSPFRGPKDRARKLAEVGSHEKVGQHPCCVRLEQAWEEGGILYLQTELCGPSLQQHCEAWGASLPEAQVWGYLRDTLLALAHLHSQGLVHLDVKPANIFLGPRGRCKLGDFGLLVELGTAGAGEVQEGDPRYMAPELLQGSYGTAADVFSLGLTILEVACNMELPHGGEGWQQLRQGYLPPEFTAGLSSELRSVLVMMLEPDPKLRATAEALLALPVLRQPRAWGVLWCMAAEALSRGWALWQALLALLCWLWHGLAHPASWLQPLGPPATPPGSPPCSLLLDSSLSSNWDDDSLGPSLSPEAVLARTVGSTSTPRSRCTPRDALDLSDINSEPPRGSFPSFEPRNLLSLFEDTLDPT
Assay: Myt1 enzymatic assay (ADP-Glo kinase assay, IC50 and % max inhibition)
Type: biochemical
Settings: recombinant human Myt1 18 nM, ATP 10 μM
Procedure: Detection of Myt1 kinase activity utilized a recombinant human Myt1 kinase assay measuring the hydrolysis of ATP using a commercially available ADP-Glo Assay (ADP-Glo™ Kinase Assay from Promega, 10 000 assays, #V9102). […] After this, 5 μL of compounds (diluted in reaction buffer to 0.5% DMSO) was added to the microplate and the plate was spun briefly and incubated at 22° C. for 15 minutes. Ultra-Pure Adenosine Triphosphate (ATP) solution (ADP-Glo kit from Promega) was diluted in reaction buffer and 5 μL was added to the microplate, spun down briefly and incubated for 60 minutes at 30° C. […] After the 60-minute incubation, 15 μL of ADP-Glo reagent was added and the plate was spun briefly and sealed and incubated in the dark for 40 minutes at 22° C. […] Luminescence was read using the Envision (250 ms integration). The IC50 and the % max inhibition were calculated for each inhibitor compound tested.

Row | SMILES | IC50 [µM]
1 | Cc1ccc(O)c(C)c1-n1c(N)c(C(N)=O)c2nc(C#CCc3ccccc3)cnc21 [Compound 1] | 0.05
2 | Cc1ccc(O)c(C)c1-n1c(N)c(C(N)=O)c2nc(CCC3CCCN3)cnc21 (stereo not drawn) [Compound 2, 6-amino-5-(3-hydroxy-2,6-dimethylphenyl)-2-(2-(pyrrolidin-2-yl)ethyl)-5H-pyrrolo[2,3-b]pyrazine-7-carboxamide] | 0.231
3 | Cc1ccc(O)c(C)c1-n1c(N)c(C(N)=O)c2nc(C#CC3CCCN3)cnc21 (stereo not drawn) [Compound 3] | 0.462
4 | Cc1ccc(O)cc1-n1c(N)c(C(N)=O)c2nc(-c3cn[nH]c3)ccc21 [Compound 5] | 0.277
5 | Cc1ccc(O)cc1-n1c(N)c(C(N)=O)c2nc(C3=CCCC3)ccc21 [Compound 6, 2-amino-5-(cyclopenten-1-yl)-1-(5-hydroxy-2-methyl-phenyl)pyrrolo[3,2-b]pyridine-3-carboxamide] | 1.24
6 | Cc1ccc(O)cc1-n1c(N)c(C(N)=O)c2nc(-c3ccc(N4CCOCC4)nc3)ccc21 [Compound 7] | 0.605
7 | Cc1ccc(O)cc1-n1c(N)c(C(N)=O)c2nc(-c3ccc(N)nc3)ccc21 [Compound 8] | 0.164
8 | Cc1ccc(O)cc1-n1c(N)c(C(N)=O)c2nc(-c3cccc(C(=O)O)c3)ccc21 [Compound 9] | 0.363
9 | Cc1ccc(O)cc1-n1c(N)c(C(N)=O)c2nc(-c3ccc(C(=O)O)cc3)ccc21 [Compound 10] | 0.187
10 | Cc1ccc(O)cc1-n1c(N)c(C(N)=O)c2nc(-c3cc[nH]n3)ccc21 [Compound 11] | 0.252
11 | Cc1ccc(O)cc1-n1c(N)c(C(N)=O)c2nc(-c3ccn(C)n3)ccc21 [Compound 12] | 0.988
12 | Cc1ccc(O)cc1-n1c(N)c(C(N)=O)c2nc(-c3ccc(N4CCN(CCO)CC4)cc3)ccc21 [Compound 13] | 0.19
13 | Cc1ccc(O)cc1-n1c(N)c(C(N)=O)c2nc(-c3cccc(C#N)c3)ccc21 [Compound 14] | 0.48
14 | Cc1ccc(O)cc1-n1c(N)c(C(N)=O)c2nc(-c3ccc(F)c(Cl)c3)ccc21 [Compound 15] | 1.09
15 | Cc1ccc(O)cc1-n1c(N)c(C(N)=O)c2nc(C#CCN3CCOCC3)ccc21 [Compound 16, 2-amino-1-(5-hydroxy-2-methyl-phenyl)-5-(3-morpholinoprop-1-ynyl)pyrrolo[3,2-b]pyridine-3-carboxamide] | 9.63
16 | Cc1ccc(O)cc1-n1c(N)c(C(N)=O)c2nc(C#CCC(C)(C)O)ccc21 [Compound 17] | 9.06
17 | Cc1ccc(O)cc1-n1c(N)c(C(N)=O)c2nc(CCCN3CCOCC3)ccc21 [Compound 18, 2-amino-1-(5-hydroxy-2-methyl-phenyl)-5-(3-morpholinopropyl)pyrrolo[3,2-b]pyridine-3-carboxamide] | 1.94

Row | SMILES | IC50 [µM]
18 | Cc1ccc(O)cc1-n1c(N)c(C(N)=O)c2nc(CCCC(C)(C)O)ccc21 [Compound 19] | 0.527
19 | Cc1ccc(O)cc1-n1c(N)c(C(N)=O)c2nc(-c3cccc(CC(=O)O)c3)ccc21 [Compound 20] | 0.182
20 | Cc1ccc(O)cc1-n1c(N)c(C(N)=O)c2nc(-c3ccc(CC(=O)O)cc3)ccc21 [Compound 21] | 0.283
21 | Cc1ccc(O)cc1-n1c(N)c(C(N)=O)c2nc(-c3ccnc(N)c3)ccc21 [Compound 22] | 0.079
22 | Cc1ccc(O)cc1-n1c(N)c(C(N)=O)c2nc(-c3nccs3)ccc21 [Compound 24] | 0.029
23 | Cc1ccc(O)cc1-n1c(N)c(C(N)=O)c2nc(-c3cccc(F)n3)ccc21 [Compound 25] | 0.399
24 | Cc1ccc(O)c(C)c1-n1c(N)c(C(N)=O)c2nc(-c3cc(C(F)(F)F)ccn3)cnc21 [Compound 36] | 0.014
25 | Cc1ccc(O)c(C)c1-n1c(N)c(C(N)=O)c2nc(N3CCN(C)CC3)cnc21 [Compound 53] | 0.016
26 | Cc1ccc(O)c(C)c1-n1c(N)c(C(N)=O)c2nc(N3CCOC(C)C3)cnc21 (stereo not drawn) [Compound 59] | 0.012
27 | Cc1ccc(O)c(C)c1-n1c(N)c(C(N)=O)c2nc(-c3ncco3)cnc21 [Compound 60] | 0.01
28 | Cc1ccc(O)c(C)c1-n1c(N)c(C(N)=O)c2nc(N3CCNC(=O)C3)cnc21 [Compound 66] | 0.01
29 | Cc1ccc(O)c(C)c1-n1c(N)c(C(N)=O)c2nc(N3CCNCC3)cnc21 [Compound 67] | 0.014
30 | Cc1ccc(O)c(C)c1-n1c(N)c(C(N)=O)c2nc(-c3ccn(C)n3)cnc21 [Compound 72] | 0.011
31 | Cc1ccc(O)c(C)c1-n1c(N)c(C(N)=O)c2nc(N3CCC(N4CCOCC4)CC3)cnc21 [Compound 74] | 0.014
32 | Cc1ccc(O)c(C)c1-n1c(N)c(C(N)=O)c2nc(N3CCS(=O)(=O)CC3)cnc21 [Compound 75] | 0.011
33 | CCCCc1cnc2c(n1)c(C(N)=O)c(N)n2-c1c(C)ccc(O)c1C [Compound 96] | 0.01
34 | CC(=O)c1c(N)n(-c2c(C)ccc(O)c2C)c2ncc(-c3cnccn3)nc12 [Compound 97, 1-[6-amino-5-(3-hydroxy-2,6-dimethyl-phenyl)-2-pyrazin-2-yl-pyrrolo[2,3-b]pyrazin-7-yl]ethenone] | 0.012

More lines, now with the values ahead:

Row | IC50 [µM] | SMILES
35 | < 0.01 | Cc1ccc(O)c(C)c1-n1c(N)c(C(N)=O)c2nc(-c3nccs3)c(C)nc21 [Compound 31, 6-amino-5-(3-hydroxy-2,6-dimethyl-phenyl)-3-methyl-2-thiazol-2-yl-pyrrolo[2,3-b]pyrazine-7-carboxamide]
36 | < 0.01 | Cc1ccc(O)c(C)c1-n1c(N)c(C(N)=O)c2nc(-c3nc(C)c(C)s3)cnc21 [Compound 32]
37 | < 0.01 | Cc1ccc(O)c(C)c1-n1c(N)c(C(N)=O)c2nc(-c3ccccn3)cnc21 [Compound 34]
38 | < 0.01 | Cc1ccc(O)c(C)c1-n1c(N)c(C(N)=O)c2nc(-c3ccnc(C(F)(F)F)c3)cnc21 [Compound 35, 6-amino-5-(3-hydroxy-2,6-dimethyl-phenyl)-2-[2-(trifluoromethyl)-4-pyridyl]pyrrolo[2,3-b]pyrazine-7-carboxamide]
39 | < 0.01 | Cc1ccc(O)c(C)c1-n1c(N)c(C(N)=O)c2nc(-c3cncs3)cnc21 [Compound 37]
40 | < 0.01 | Cc1ccc(O)c(C)c1-n1c(N)c(C(N)=O)c2nc(-c3cnccn3)cnc21 [Compound 38]
41 | < 0.01 | Cc1ccc(O)c(C)c1-n1c(N)c(C(N)=O)c2nc(-c3ccns3)cnc21 [Compound 41]
42 | < 0.01 | Cc1c(O)ccc(Cl)c1-n1c(N)c(C(N)=O)c2nc(-c3nccs3)cnc21 [Compound 42]
43 | < 0.01 | CNC(=O)C1CCN(c2cnc3c(n2)c(C(N)=O)c(N)n3-c2c(C)ccc(O)c2C)CC1 [Compound 46, 6-amino-5-(3-hydroxy-2,6-dimethyl-phenyl)-2-[4-(methylcarbamoyl)-1-piperidyl]pyrrolo[2,3-b]pyrazine-7-carboxamide]
44 | < 0.01 | Cc1ccc(O)c(C)c1-n1c(N)c(C(N)=O)c2nc(-c3ccc(Cl)cn3)cnc21 [Compound 49]
45 | 0.01 | Cc1ccc(O)c(C)c1-n1c(N)c(C(N)=O)c2nc(N3CCC(C)(O)CC3)cnc21 [Compound 52]
46 | < 0.01 | Cc1ccc(O)c(C)c1-n1c(N)c(C(N)=O)c2nc(-c3ccncn3)cnc21 [Compound 57]
47 | < 0.01 | Cc1ccc(O)c(C)c1-n1c(N)c(C(N)=O)c2nc(C3=CCC(C(=O)N(C)C)CC3)cnc21 (stereo not drawn) [Compound 58]
48 | < 0.01 | Cc1ccc(-c2cnc3c(n2)c(C(N)=O)c(N)n3-c2c(C)ccc(O)c2C)nc1 [Compound 61]
49 | < 0.01 | Cc1ccc(O)c(C)c1-n1c(N)c(C(N)=O)c2nc(-c3ccc(F)cn3)cnc21 [Compound 64]
50 | < 0.01 | Cc1ccc(O)c(C)c1-n1c(N)c(C(N)=O)c2nc(-c3c[nH]cn3)cnc21 [Compound 65]
51 | < 0.01 | Cc1ccc(O)c(C)c1-n1c(N)c(C(N)=O)c2nc(-c3cn(C)cn3)cnc21 [Compound 76]
52 | < 0.01 | Cc1ccc(O)c(C)c1-n1c(N)c(C(N)=O)c2nc(N3CCC(C(=O)N(C)C)CC3)cnc21 [Compound 80]
53 | < 0.01 | Cc1ccc(O)c(C)c1-n1c(N)c(C(N)=O)c2nc(N3CCCCC3)cnc21 [Compound 81]
54 | < 0.01 | Cc1ccc(O)c(C)c1-n1c(N)c(C(N)=O)c2nc(C3CCCCC3)cnc21 [Compound 83]
55 | < 0.01 | Cc1ccc(O)c(C)c1-n1c(N)c(C(N)=O)c2nc(N3CCCC3)cnc21 [Compound 85]
56 | < 0.01 | Cc1ccc(O)c(C)c1-n1c(N)c(C(N)=O)c2nc(C3=CCCCC3)cnc21 [Compound 86]
57 | < 0.01 | CC(=O)N1CCN(c2cnc3c(n2)c(C(N)=O)c(N)n3-c2c(C)ccc(O)c2C)CC1 [Compound 87]
58 | < 0.01 | CCN(CC)c1cnc2c(n1)c(C(N)=O)c(N)n2-c1c(C)ccc(O)c1C [Compound 88]
59 | < 0.01 | Cc1ccc(O)c(C)c1-n1c(N)c(C(N)=O)c2nc(N3CC4CCC(C3)O4)cnc21 [Compound 92]
60 | < 0.01 | Cc1ccc(O)c(C)c1-n1c(N)c(C(N)=O)c2nc(C3CC3)c(C)nc21 [Compound 100]
